Biological target: T1, human recombinant CRF-1 receptor (Homo sapiens, UniProt P34998)
T1 construct: expressed in transfected cells; host or cells: Chinese hamster ovary (CHO) cells, G418-selected
T1 sequence (P34998 24-415): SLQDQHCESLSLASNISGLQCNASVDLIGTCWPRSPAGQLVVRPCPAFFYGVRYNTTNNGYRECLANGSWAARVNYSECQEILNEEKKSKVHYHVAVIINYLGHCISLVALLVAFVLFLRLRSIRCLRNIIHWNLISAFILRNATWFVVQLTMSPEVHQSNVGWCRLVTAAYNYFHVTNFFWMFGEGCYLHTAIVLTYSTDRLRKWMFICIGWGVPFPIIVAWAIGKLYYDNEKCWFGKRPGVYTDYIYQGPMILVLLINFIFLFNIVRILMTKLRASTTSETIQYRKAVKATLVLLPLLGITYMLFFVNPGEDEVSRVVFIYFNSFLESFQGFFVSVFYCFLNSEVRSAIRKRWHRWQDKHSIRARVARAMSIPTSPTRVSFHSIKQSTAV
Assay: CRF-1 receptor antagonism, HTRF cAMP assay in CHO cells in the presence of 1 nM CRF
Assay type: cell-based
Conditions: CHO cells expressing human recombinant CRF-1; inhibition of the effect of 1 nM CRF on cAMP; read-out: hCRF1ANTAG/IC50
Procedure: The CRF-1 or CRF-2a receptor activity of the agents of the invention has been determined in vitro in the following way:
Chinese hamster ovary (CHO) cells expressing either the human recombinant CRF-1 or CRF-2a receptors (Chen et al., Proc Natl Acad Sci USA 90, 8967-8971, 1993; Liaw et al., Endocrinology 137, 72-77, 1996) are propagated in Dulbecco's modified Eagle medium supplemented with 10% foetal calf serum, non-essential amino acids, 100 U/ml penicillin, 100 mg/l streptomycin and 1 g/l geneticin (G418). For cyclic AMP determinations the Homogeneous Time-Resolved Fluoresce (HTRF) cAMP dynamic 2 kit (Cishbio International, France) was used as per manufacturers' instructions. CHO cells, previously cryopreserved, were thawed, centrifuged for 7 mins at 1200 rpm and resuspended in serum free media, then pipetted out onto clear bottomed black tissue culture treated 384-well microtitre plates (Corning Inc, US) at 2,000 cells per well. […] The plate is read on the Pherastar (BMG, Germany). […] Values represented by a change in arbitrary fluorescence units are converted into cAMP concentrations by use of a standard curve the reagents for which are supplied with the kit. […] IC50 values of antagonists are calculated by fitting the percent inhibition of the effect of CRF by increasing concentrations of the antagonists. […]

## Cc1nc(C)n(-c2c(C)nn3c(-c4ccc(OC(F)F)cc4C)c(C)oc23)n1 [Example 1, 3-(4-(Difluoromethoxy)-2-methylphenyl)-7-(3,5-dimethyl-1H-1,2,4-triazol-1-yl)-2,6-dimethylpyrazolo[5,1-b]oxazole]
  IC50: 71 nM
